From ChEMBL document CHEMBL5465560, “Selectivity Literature for EUbOPEN Chemogenomic Library” (2024)

Legend:
[1] = target: ATPase family AAA domain-containing protein 2B (Homo sapiens) (UniProt Q9ULI0); experiment: Selectivity interaction (Human bromodomain panel (DSF assay)) EUB0000233b ATAD2B
[2] = target: Serine/threonine-protein kinase WNK4 (Homo sapiens) (UniProt Q96J92); experiment: Selectivity interaction (KinomeScan (DiscoverX)) EUB0001049a WNK4; conditions: at 1 µM
[3] = target: Serine/threonine-protein kinase 16 (Homo sapiens, UniProt O75716); experiment: Selectivity interaction (ActivX KiNativ screen (ex vivo kinase selectivity in human PBMCs)) EUB0001619a STK16; format: cell-based; conditions: PBMC, at 1 µM
Sequence of Serine/threonine-protein kinase 16 (O75716 whole entry): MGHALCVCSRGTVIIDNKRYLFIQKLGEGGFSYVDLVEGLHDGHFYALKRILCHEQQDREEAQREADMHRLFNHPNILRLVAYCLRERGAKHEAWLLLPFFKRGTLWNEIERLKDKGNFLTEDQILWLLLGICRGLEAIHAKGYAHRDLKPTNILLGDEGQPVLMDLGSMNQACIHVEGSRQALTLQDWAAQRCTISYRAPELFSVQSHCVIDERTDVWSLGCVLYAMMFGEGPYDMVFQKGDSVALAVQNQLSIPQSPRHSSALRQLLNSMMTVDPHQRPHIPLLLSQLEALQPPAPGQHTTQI

[4] = target: Tyrosine-protein kinase SYK (Homo sapiens, UniProt P43405); experiment: Selectivity interaction (ActivX KiNativ screen (ex vivo kinase selectivity in human PBMCs)) EUB0001619a SYK; format: cell-based; conditions: PBMC, at 1 µM
[5] = target: T1, Serine/threonine-protein kinase D2 (Homo sapiens) (UniProt Q9BZL6); experiment: Selectivity interaction (KinomeScan (DiscoverX)) EUB0001619a PRKD2; conditions: at 1 µM
T1 sequence (whole entry): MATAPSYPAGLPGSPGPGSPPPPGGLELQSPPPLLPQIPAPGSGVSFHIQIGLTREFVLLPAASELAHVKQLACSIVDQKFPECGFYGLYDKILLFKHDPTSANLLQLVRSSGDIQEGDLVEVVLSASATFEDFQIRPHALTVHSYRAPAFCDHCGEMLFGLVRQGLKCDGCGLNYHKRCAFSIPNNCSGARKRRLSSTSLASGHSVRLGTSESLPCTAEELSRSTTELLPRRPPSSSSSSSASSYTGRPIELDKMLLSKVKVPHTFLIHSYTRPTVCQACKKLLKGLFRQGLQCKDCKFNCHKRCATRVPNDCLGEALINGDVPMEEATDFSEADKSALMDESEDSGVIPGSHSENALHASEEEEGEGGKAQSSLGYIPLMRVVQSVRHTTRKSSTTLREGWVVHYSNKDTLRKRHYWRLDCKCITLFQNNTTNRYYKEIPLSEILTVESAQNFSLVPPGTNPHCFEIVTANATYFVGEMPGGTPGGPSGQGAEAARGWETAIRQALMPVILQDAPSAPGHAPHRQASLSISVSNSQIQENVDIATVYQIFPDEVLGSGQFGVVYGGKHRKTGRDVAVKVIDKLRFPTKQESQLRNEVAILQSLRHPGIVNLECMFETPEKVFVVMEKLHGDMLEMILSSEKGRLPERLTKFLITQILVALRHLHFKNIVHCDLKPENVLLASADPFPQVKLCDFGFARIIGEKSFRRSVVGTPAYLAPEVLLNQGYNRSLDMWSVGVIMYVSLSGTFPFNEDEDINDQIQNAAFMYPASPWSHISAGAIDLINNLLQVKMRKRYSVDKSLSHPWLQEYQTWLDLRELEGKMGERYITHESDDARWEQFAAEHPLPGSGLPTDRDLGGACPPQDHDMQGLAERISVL

[6] = target: Ribosomal protein S6 kinase alpha-3 (Homo sapiens, UniProt P51812); experiment: Selectivity interaction (SelectScreen profiling (Invitrogen)) EUB0000607a RPS6KA3; conditions: at 2 µM
Sequence of Ribosomal protein S6 kinase alpha-3 (P51812 whole entry, canonical isoform): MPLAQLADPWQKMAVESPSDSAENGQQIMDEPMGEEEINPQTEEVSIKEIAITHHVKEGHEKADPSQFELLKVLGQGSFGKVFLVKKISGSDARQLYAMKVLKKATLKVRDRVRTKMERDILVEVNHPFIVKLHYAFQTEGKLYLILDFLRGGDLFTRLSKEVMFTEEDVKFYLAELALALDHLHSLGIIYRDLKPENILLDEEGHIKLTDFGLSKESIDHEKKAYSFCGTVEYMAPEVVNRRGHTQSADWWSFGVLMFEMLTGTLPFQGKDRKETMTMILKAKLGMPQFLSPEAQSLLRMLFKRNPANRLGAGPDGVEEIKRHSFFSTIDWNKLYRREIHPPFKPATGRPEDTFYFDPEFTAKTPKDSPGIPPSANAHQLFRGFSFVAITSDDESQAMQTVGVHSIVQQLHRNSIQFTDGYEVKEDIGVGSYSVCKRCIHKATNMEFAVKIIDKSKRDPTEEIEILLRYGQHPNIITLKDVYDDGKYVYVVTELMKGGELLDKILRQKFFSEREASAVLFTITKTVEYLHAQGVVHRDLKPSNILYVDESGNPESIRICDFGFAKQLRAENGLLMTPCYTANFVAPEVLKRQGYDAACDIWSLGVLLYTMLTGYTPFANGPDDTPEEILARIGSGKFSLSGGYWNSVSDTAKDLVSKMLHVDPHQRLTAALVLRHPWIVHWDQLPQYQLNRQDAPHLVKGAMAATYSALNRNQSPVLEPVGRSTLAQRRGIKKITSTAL

[7] = target: T2, Phosphatidylinositol 4,5-bisphosphate 3-kinase catalytic subunit delta isoform (Homo sapiens) (UniProt O00329); experiment: Selectivity interaction (ActivX KiNativ screen (kinase selectivity in THP-1 cell lysates)) EUB0000639a PIK3CD; format: subcellular; conditions: lysate, at 5 µM
T2 sequence (whole entry): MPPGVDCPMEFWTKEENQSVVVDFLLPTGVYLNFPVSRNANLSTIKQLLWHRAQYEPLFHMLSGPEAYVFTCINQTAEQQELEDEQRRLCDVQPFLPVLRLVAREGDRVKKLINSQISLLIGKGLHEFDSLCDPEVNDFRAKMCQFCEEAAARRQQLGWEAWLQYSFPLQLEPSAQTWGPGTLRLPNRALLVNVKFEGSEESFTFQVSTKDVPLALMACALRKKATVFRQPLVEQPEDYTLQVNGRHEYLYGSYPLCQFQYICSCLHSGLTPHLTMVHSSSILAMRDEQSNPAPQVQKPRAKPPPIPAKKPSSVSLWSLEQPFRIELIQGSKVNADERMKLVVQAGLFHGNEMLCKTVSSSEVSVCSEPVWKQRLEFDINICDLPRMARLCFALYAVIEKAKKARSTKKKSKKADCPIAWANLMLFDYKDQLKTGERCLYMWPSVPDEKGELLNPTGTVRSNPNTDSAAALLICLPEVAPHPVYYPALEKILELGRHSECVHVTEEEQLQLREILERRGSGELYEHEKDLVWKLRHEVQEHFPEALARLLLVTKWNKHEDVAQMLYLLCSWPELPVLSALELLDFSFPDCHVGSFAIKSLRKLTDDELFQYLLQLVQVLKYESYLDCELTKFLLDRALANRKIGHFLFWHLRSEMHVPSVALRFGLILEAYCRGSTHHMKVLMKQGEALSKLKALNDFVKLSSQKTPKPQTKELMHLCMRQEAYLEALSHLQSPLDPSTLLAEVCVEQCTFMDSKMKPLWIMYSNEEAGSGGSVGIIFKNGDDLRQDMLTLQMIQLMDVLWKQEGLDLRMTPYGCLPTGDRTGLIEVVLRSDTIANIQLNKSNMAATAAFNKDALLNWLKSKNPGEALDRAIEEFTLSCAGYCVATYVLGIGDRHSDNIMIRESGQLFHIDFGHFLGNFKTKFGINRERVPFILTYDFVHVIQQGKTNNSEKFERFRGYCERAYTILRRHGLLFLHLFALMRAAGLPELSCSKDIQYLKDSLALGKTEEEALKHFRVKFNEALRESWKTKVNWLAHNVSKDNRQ

[8] = target: T3, Scaffold protein ILK (Homo sapiens) (UniProt Q13418); experiment: Selectivity interaction (ActivX KiNativ screen (kinase selectivity in THP-1 cell lysates)) EUB0000639a ILK; format: subcellular; conditions: lysate
T3 sequence (whole entry): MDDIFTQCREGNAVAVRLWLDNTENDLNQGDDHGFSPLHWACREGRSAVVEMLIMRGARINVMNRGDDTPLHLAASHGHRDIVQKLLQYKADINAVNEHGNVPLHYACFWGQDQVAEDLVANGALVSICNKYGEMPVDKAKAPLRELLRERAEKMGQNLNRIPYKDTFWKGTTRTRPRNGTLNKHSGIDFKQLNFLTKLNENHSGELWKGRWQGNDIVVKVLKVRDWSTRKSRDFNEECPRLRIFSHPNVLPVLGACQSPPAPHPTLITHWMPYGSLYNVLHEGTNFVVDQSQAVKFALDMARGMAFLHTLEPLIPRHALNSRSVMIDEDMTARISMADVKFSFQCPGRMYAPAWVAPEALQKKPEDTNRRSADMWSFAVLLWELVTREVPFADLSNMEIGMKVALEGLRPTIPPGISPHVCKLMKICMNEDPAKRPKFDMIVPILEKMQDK

[9] = target: Tyrosine-protein kinase JAK2 (Homo sapiens, UniProt O60674); conditions: at 10 µM
Sequence of Tyrosine-protein kinase JAK2 (O60674 whole entry): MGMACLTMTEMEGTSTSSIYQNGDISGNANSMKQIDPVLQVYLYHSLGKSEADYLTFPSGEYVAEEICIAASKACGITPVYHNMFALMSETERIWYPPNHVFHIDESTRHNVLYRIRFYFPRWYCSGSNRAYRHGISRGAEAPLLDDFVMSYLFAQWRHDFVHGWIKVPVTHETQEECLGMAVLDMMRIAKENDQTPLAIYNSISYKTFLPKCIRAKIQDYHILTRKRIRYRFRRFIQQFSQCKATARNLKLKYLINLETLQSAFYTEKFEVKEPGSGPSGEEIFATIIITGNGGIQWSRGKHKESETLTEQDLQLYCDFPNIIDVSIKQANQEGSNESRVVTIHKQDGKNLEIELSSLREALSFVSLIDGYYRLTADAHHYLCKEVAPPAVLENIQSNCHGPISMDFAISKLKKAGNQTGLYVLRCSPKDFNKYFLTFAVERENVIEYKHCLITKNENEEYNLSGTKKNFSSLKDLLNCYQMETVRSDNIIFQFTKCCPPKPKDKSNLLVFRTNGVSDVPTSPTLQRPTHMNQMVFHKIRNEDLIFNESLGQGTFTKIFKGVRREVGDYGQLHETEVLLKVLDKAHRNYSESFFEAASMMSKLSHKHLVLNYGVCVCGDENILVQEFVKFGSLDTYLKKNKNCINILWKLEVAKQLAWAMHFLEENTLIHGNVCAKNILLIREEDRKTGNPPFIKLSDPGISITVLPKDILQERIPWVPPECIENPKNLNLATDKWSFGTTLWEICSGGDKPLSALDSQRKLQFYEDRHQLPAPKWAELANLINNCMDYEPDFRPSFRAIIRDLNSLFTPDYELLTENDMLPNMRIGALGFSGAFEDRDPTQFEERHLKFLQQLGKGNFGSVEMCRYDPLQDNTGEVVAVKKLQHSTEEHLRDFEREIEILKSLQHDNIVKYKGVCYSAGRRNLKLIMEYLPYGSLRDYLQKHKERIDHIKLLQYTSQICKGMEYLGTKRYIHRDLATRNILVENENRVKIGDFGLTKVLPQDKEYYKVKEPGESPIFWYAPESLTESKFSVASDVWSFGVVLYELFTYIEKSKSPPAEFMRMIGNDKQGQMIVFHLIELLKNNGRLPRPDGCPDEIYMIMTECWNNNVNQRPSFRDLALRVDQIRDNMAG

Sequence of ATPase family AAA domain-containing protein 2B (Homo sapiens) (Q9ULI0 whole entry, the tested form may be a part): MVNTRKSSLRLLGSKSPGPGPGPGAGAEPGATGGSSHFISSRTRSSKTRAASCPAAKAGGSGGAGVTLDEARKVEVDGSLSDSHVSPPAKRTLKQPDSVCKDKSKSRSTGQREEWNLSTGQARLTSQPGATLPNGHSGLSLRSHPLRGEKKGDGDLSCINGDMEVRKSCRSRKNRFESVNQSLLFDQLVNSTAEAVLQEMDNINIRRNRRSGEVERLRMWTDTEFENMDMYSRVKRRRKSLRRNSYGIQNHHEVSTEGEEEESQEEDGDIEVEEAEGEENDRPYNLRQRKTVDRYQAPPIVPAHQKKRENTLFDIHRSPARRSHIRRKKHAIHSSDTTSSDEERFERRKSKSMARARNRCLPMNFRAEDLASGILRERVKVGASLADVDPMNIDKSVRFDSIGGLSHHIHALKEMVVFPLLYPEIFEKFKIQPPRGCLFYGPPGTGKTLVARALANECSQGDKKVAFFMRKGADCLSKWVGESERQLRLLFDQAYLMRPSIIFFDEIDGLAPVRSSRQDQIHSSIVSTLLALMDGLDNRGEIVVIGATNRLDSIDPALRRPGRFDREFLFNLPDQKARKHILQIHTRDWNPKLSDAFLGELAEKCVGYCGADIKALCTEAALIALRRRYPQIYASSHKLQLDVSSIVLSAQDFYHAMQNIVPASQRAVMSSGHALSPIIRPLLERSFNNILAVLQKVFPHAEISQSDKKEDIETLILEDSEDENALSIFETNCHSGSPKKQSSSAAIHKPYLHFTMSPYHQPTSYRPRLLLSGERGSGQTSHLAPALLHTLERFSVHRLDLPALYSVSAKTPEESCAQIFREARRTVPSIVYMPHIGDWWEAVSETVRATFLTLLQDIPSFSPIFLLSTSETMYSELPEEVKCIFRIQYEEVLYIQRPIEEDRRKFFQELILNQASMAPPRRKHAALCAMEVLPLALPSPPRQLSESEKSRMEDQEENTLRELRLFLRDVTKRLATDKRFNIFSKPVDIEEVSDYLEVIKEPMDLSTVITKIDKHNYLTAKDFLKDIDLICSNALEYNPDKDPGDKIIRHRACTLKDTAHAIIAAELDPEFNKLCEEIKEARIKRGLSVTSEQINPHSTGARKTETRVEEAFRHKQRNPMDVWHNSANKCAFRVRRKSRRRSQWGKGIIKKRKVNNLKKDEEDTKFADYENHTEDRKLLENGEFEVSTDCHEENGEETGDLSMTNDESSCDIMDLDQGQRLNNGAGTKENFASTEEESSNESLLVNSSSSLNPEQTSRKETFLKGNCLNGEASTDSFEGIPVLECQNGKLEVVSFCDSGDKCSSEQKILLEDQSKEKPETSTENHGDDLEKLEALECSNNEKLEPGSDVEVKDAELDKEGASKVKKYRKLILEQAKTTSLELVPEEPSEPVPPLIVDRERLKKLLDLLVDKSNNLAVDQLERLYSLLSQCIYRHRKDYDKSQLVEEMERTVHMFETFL
Sequence of Serine/threonine-protein kinase WNK4 (Homo sapiens) (Q96J92 whole entry): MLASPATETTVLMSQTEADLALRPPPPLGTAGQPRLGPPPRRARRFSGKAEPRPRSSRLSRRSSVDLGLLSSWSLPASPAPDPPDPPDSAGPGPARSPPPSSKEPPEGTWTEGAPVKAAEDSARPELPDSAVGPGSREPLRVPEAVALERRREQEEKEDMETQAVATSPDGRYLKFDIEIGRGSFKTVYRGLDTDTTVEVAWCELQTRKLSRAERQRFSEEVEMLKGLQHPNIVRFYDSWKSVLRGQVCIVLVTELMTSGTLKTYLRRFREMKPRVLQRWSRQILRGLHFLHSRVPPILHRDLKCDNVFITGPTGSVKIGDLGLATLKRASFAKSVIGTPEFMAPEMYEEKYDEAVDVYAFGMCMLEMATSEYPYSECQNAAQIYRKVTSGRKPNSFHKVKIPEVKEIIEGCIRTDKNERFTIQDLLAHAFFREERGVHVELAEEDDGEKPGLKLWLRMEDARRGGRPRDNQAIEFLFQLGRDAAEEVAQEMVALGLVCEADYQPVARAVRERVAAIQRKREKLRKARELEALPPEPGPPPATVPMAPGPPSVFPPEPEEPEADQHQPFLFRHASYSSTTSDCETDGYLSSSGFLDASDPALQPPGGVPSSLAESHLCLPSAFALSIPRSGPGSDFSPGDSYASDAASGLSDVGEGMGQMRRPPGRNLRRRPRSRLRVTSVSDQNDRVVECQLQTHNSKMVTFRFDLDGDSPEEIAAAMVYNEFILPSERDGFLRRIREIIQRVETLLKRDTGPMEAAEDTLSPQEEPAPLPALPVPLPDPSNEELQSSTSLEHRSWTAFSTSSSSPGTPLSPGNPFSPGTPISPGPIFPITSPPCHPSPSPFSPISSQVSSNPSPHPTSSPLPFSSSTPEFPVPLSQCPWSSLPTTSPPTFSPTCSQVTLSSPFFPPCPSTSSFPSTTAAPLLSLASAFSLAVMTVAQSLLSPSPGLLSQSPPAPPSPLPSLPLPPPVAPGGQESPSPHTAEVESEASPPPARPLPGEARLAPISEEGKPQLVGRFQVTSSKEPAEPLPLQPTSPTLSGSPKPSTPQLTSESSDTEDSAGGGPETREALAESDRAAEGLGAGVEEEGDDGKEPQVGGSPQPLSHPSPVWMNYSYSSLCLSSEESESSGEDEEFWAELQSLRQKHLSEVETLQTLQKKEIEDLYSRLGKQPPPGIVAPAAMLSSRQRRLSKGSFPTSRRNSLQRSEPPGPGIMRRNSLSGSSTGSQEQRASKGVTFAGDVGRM

CN(C)CCCOc1ccc(-c2cc(NCCCn3cccn3)nc(S(C)(=O)=O)n2)cc1
dTM [1]: < 2 K

COc1cc(Nc2nc(C)cc(-c3cnn4nc(OC)ccc34)n2)cc(C(F)(F)F)c1
% of control [2]: 100%

N#Cc1cccc(-c2c[nH]c3ncnc(N4CCOCC4)c23)c1
% of inhibition [3]: 63% | % of inhibition [4]: -12% | % of control [5]: 100%

CNC(=O)Nc1ccc(-c2nc(N3CC4CCC(C3)O4)c3cnn(C4CCC5(CC4)OCCO5)c3n2)cc1
% of inhibition [6]: -2%

CC[C@@H]1[C@H](F)C(=O)N[C@@H]1COc1nccc2cc(C(N)=O)c(OC)cc12 [ZIMLOVISERTIB]
% of inhibition [7]: 18.5% | % of inhibition ([8]; at 0.01 µM): 6.6% | % of inhibition ([8]; at 0.04 µM): 1.4% | % of inhibition ([8]; at 0.2 µM): 11.2% | % of inhibition ([8]; at 1 µM): 7.8% | % of inhibition ([8]; at 5 µM): -3.7%

CCN(CC)CCCCNc1ncc2cc(-c3cc(OC)cc(OC)c3)c(NC(=O)NC(C)(C)C)nc2n1
% of control [9]: 100%
